Reference: patent US7135487B2, “Sulphonamide derivatives” (Eli Lilly and Company, priority 1997, dated 2006)

Key:
human GluR4B = molecular target: T1, human GluR4B (Homo sapiens, UniProt P48058); assay: Fluo3-AM fluorescence test of glutamate-induced response in HEK cells, relative to 100 μM cyclothiazide; assay type: cell-based; conditions: human GluR4B receptor expressed in HEK 293 cells
T1 construct: expressed in transfected cells; host or cells: HEK (HEK 293)
Protocol: 96 well plates containing confluent monolayers of HEK cells stably expressing human GluR4B (obtained as described in European Patent Application Publication Number EP-A1–583917) were prepared. The tissue culture medium in the wells was then discarded, and the wells were each washed once with 200 μl of 5NaCa buffer (glucose, 10 mM, sodium chloride, 138 mM, magnesium chloride, 1 mM, potassium chloride, 5 mM, calcium chloride, 5 mM, N-[2-hydroxyethyl]-piperazine-N-[2-ethanesulfonic acid], 10 mM, to pH 7.1 to 7.3). The plates were then incubated for 60 minutes in the dark with 20 μM Fluo3-AM dye (obtained from Molecular Probes Inc, Eugene, Oreg.) in 5 NaCa buffer in each well. After the incubation, each well was washed once with 100 μl 5NaCa buffer, 200 μl of 5NaCa buffer was added and the plates were incubated for 30 minutes. […]
Each test was then performed as follows. […] A first reading was then taken using a FLUOROSKAN II fluorimeter (Obtained from Labsystems, Needham Heights, Mass., USA, a Division of Life Sciences International Plc). […] A second reading was then taken using the fluorimeter. The plate was then left in the fluorimeter for 5 minutes, and a third reading was taken. 15 μl of 400 μM glutamate solution was then added to each well (final glutamate concentration 100 μM), and a fourth reading was taken immediately. Approximately three minutes later, a fifth reading was taken. […]

T1 sequence (P48058 21-902): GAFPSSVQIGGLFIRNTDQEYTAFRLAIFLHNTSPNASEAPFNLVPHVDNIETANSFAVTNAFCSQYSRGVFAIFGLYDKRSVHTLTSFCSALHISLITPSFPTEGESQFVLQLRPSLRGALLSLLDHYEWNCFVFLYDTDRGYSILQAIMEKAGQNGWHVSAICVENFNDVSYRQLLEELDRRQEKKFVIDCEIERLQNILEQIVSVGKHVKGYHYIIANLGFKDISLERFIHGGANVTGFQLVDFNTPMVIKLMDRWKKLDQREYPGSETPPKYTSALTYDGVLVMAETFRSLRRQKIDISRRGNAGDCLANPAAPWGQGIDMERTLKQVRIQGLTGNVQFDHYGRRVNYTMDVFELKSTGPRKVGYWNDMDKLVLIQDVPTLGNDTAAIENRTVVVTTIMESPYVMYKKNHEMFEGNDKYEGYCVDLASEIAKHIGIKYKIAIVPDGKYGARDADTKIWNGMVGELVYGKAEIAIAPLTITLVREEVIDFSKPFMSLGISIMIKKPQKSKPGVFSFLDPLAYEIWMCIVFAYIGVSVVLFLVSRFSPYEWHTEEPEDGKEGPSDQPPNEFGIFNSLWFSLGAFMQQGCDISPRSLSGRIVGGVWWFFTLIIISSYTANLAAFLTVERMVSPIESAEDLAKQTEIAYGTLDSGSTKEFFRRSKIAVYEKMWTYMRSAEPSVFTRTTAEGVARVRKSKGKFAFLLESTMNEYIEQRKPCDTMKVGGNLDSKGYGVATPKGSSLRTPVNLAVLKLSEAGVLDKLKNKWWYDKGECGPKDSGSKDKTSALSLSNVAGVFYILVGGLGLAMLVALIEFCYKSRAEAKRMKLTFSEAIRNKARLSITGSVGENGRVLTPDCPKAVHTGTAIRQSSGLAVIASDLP

melting point [°C]	Compound	potentiation of agonist-induced excitability of human GluR4B receptor (human GluR4B)
82 to 84	CC(C)(C)c1ccc(C2(CNS(=O)(=O)C(F)(F)F)CC2)cc1	
87 to 89.5	CC(C)S(=O)(=O)NCC1(c2ccc(C(C)(C)C)cc2)CC1	
	NS(=O)(=O)c1cc2c(cc1Cl)NC(C1CC3C=CC1C3)NS2(=O)=O (stereo not drawn) [cyclothiazide]	potentiate
